Data on 64 sequences can be found in patent publication US11773381B2, “Cell penetrating peptide, conjugate comprising same, and composition comprising conjugate” (GemVax & KAEL CO., LTD., priority 2012, dated 2023).

The subject of the assay is HeLa cell. Description: Cell penetration of pep(CPP)-FITC conjugates in HeLa cell line, flow cytometry (FACS). The format is cell-based, Homo sapiens. To be noted: HeLa cells, 20 μM of each carrier peptide combined with FITC, 37° C. for an hour, control cells treated only FITC. The procedure:
Homo sapiens cervix adenocarcinoma cell line as HeLa cell lines were purchased from ATCC (American Type Cell Culture). The cells were cultured in MEM supplemented with 10% fetal bovine serum (Invitrogen, USA), Earle's salts, non-essential amino acids, sodium pyruvate and 100 μg/ml penicillin and 10 units/ml streptomycin and cultured at 37° C., 5% CO2 incubator.
Flow cytometry and Confocal microscope analysis were performed to compare the between degree of cellular uptake of the cells were treated with SEQ ID NO: 1 to SEQ ID NO: 156, pep (CPP) and control.
The cell line was divided in a 6-well plate and cultured in a medium containing 10% fetal bovine serum (Invitrogen, USA), […] at 37° C., 5% CO2 incubator for 12 hours. After washing the cell line with PBS, starvation was induced in a Minimum Essential Medium for an hour. 20 μM of each carrier peptide was treated and cultured at 37° C. for an hour. After repeating the step of washing the cells with PBS for three times, Trypsin-EDTA was treated form 10 mins at 37° C. to separate the carrier peptide on the outside of the cell. cells were collected with refrigerated PBS and centrifugation was performed to repeat the step of washing the cells for three times. After then, the cells were suspended in 0.5 ml of PBS containing 4% Paraformaldehyde and fluorescence of the cells was analyzed using FACS Calibur (Becton Dickinson). The cellular uptake aspect of control and various peptides combined with FITC was compared and analyzed by MFI (Mean Fluorescence Intensity).
Analysis results shown in FIG. 1 to FIG. 23 are given in detail in Table 3 below.
“KLQSIGIRQHLKRVQ (listed as Homo sapiens) [pep39]”: the “cellular uptake, MFI (Mean Fluorescence Intensity)” value (“cellular uptake, MFI” below) is 21.4 ± 0.99.

As for “QMPAHGLFPWCGLLLDTRTL (listed as Homo sapiens) [pep96]”, the “cellular uptake, MFI” value is 308.53 ± 3.61.

For “SVLGLDDIHR (listed as Homo sapiens) [pep17]”, the “cellular uptake, MFI” value is reported as 15.26 ± 2.23.

On to “LSEAEVRQHREARPALLTSR (listed as Homo sapiens) [pep80]”, for which the “cellular uptake, MFI” value was 12.45 ± 0.46.

As to “VLGLDDIHR (listed as Homo sapiens) [pep23]”, the “cellular uptake, MFI” value was determined as 15.68 ± 2.03.

In the case of “MPRAPRCRAVRSLLRSHYRE (listed as Homo sapiens) [pep50]”, the “cellular uptake, MFI” value was determined as 2228.76 ± 3.68.

On to “SYLPNTVTDALRGSGAWGLL (listed as Homo sapiens) [pep56]”, for which the “cellular uptake, MFI” value stood at 28.61 ± 0.44.

“GARTFRREKRAERLTSRVKA (listed as Homo sapiens) [pep82]”: the “cellular uptake, MFI” value came to 22.44 ± 3.32.

On to “LCSLCYGDMENKLFAGIRRD (listed as Homo sapiens) [pep92]”, for which the “cellular uptake, MFI” value is on record as 19.91 ± 0.51.

As for “SHVSTLTDLQPYMRQFVAHL (listed as Homo sapiens) [pep88]”, the “cellular uptake, MFI” value came to 16.43 ± 0.55.

With “VTETTFQKNRLFFYR (listed as Homo sapiens) [pep37]”, the “cellular uptake, MFI” value is 20.81 ± 1.02.

On to “RKTVVNFPVEDEALGGTAFV (listed as Homo sapiens) [pep95]”, for which the “cellular uptake, MFI” value was 10.92 ± 0.07.

Take “VAQCLVCVPWDARPPPAAPS (listed as Homo sapiens) [pep110]”: the “cellular uptake, MFI” value is reported as 22.04 ± 0.77.

Turning to “RRSPGVGCVPAAEHRLREEI (listed as Homo sapiens) [pep76]”, the “cellular uptake, MFI” value is recorded as 13.98 ± 0.11.

Consider “RSLLRSHYREVLPLATFVRR (listed as Homo sapiens) [pep108]”, for which the “cellular uptake, MFI” value was found to be 22.53 ± 0.95.

In the case of “FIPKPDGLRPIVNMD (listed as Homo sapiens) [pep42]”, the “cellular uptake, MFI” value worked out at 20.82 ± 1.93.

Take “KLTRHRVTYVPLLGSLRTAQ (listed as Homo sapiens) [pep104]”: the “cellular uptake, MFI” value is listed as 36.74 ± 1.11.

As for “MPRAPRCRAV (listed as Homo sapiens) [pep107]”, the “cellular uptake, MFI” value is 23.11 ± 0.56.

On to “SVLGLDDIH (listed as Homo sapiens) [pep31]”, for which the “cellular uptake, MFI” value is 14.93 ± 2.05.

Regarding “RPALLTSRLRFIPKP (listed as Homo sapiens) [pep41]”, the “cellular uptake, MFI” value is reported as 28.97 ± 3.44.

ALFSVLNYERARRPGLLGASVLGLDDIHRA [pep2]: the “cellular uptake, MFI” value is 37.6 ± 1.89.

Take “ALLTSRLRFI (listed as Homo sapiens) [pep5]”: the “cellular uptake, MFI” value was 19.06 ± 1.33.

Turning to “ARRPGLLG (listed as Homo sapiens) [pep33]”, the “cellular uptake, MFI” value is 14.36 ± 1.63.

“AAEHRLREEILAKFLHWLMS (listed as Homo sapiens) [pep134]”: the “cellular uptake, MFI” value worked out at 78.05 ± 2.26.

Turning to “RTRGPSDRGFCVVSPARPAE (listed as Homo sapiens) [pep63]”, the “cellular uptake, MFI” value stood at 21.3 ± 1.55.

In the case of “KTFLRTLVRGVPEYGCVVNL (listed as Homo sapiens) [pep94]”, the “cellular uptake, MFI” value was 117.76 ± 4.24.

Take “RLTSRVKAL (listed as Homo sapiens) [pep7]”: the “cellular uptake, MFI” value stood at 9.51 ± 2.95.

For “SVLNYERARRPGLLG (listed as Homo sapiens) [pep3]”, the “cellular uptake, MFI” value amounted to 18.23 ± 3.21.

Turning to “VETIFLGSRPWMPGTPRRLP (listed as Homo sapiens) [pep68]”, the “cellular uptake, MFI” value came to 27.28 ± 1.28.

Consider “RPALLTSRL (listed as Homo sapiens) [pep6]”, for which the “cellular uptake, MFI” value worked out at 15.81 ± 1.59.

Turning to “LKRVQLRELSEAEVRQ (listed as Homo sapiens) [pep49]”, the “cellular uptake, MFI” value amounted to 13.91 ± 0.51.

Consider “RPSLTGARRLVETIFLGSRP (listed as Homo sapiens) [pep125]”, for which the “cellular uptake, MFI” value was found to be 28.62 ± 2.12.

As for “EARPALLTSRLRFIPKPDGL (listed as Homo sapiens) [pep138]”, the “cellular uptake, MFI” value came to 16.43 ± 0.91.

For the sequence “RPGLLGASVL (listed as Homo sapiens) [pep21]”, the “cellular uptake, MFI” value is on record as 13.22 ± 1.67.

For “AAGPLPSEAVQWLCHQAFLL (listed as Homo sapiens) [pep103]”, the “cellular uptake, MFI” value is listed as 126.88 ± 2.14.

Turning to “WMPGTPRRLPRLPQRYWQMR (listed as Homo sapiens) [pep126]”, the “cellular uptake, MFI” value turned out to be 3362.29 ± 3.24.

For “EAEVRQHREARPALL (listed as Homo sapiens) [pep40]”, the “cellular uptake, MFI” value is given as 11.63 ± 1.11.

For “PGLLGASVL (listed as Homo sapiens) [pep27]”, the “cellular uptake, MFI” value was 9.89 ± 2.51.

For the sequence “RRPGLLGASVLGLDDIHRAW (listed as Homo sapiens) [pep141]”, the “cellular uptake, MFI” value was 20.89 ± 0.31.

For “ATQARPPPHASGPRRRLGCE (listed as Homo sapiens) [pep59]”, the “cellular uptake, MFI” value was 18.58 ± 0.52.

With “LFSVLNYERARRPGLLGASV (listed as Homo sapiens) [pep83]”, the “cellular uptake, MFI” value is on record as 24.57 ± 1.36.

For the sequence “QETSPLRDAVVIEQSSSLNE (listed as Homo sapiens) [pep89]”, the “cellular uptake, MFI” value was found to be 13.54 ± 0.75.

“SGPRRRLGCERAWNHSVREA (listed as Homo sapiens) [pep117]”: the “cellular uptake, MFI” value is recorded as 23.11 ± 2.46.

As to LFFYRKSVWSKLQSI [pep38], the “cellular uptake, MFI” value was 380.4 ± 2.6.

“KSVWSKLQSIGIRQH (listed as Homo sapiens) [pep48]”: the “cellular uptake, MFI” value is recorded as 26.51 ± 2.36.

Turning to “RPIVNMDYVVGARTFRREKR (listed as Homo sapiens) [pep139]”, the “cellular uptake, MFI” value is reported as 29.95 ± 0.28.

Turning to “VARVLQRLCERGAKNVLAFG (listed as Homo sapiens) [pep54]”, the “cellular uptake, MFI” value is reported as 388.45 ± 2.94.

On to “GLLGASVLGL (listed as Homo sapiens) [pep4]”, for which the “cellular uptake, MFI” value turned out to be 28.35 ± 2.54.

With “ALFSVLNYE (listed as Homo sapiens) [pep29]”, the “cellular uptake, MFI” value is 33.5 ± 2.48.

Take “PYMRQFVAHLQETSPLRDAV (listed as Homo sapiens) [pep146]”: the “cellular uptake, MFI” value came out at 18.32 ± 1.82.

On to “VLNYERARR (listed as Homo sapiens) [pep25]”, for which the “cellular uptake, MFI” value was 18.62 ± 0.69.

Consider “VLPLATFVRRLGPQGWRLVQ (listed as Homo sapiens) [pep51]”, for which the “cellular uptake, MFI” value is given as 59.81 ± 1.38.

For “KMSVRDCAWLRRSPGVGCVP (listed as Homo sapiens) [pep133]”, the “cellular uptake, MFI” value was 46.79 ± 1.92.

In the case of “LRFIPKPDGLRPIVNMDYVV (listed as Homo sapiens) [pep81]”, the “cellular uptake, MFI” value turned out to be 29.69 ± 2.49.

As to “VRRYAVVQKAAHGEVRKAFK (VRRYAVVQKAAHGHVRKAFK; listed as Homo sapiens) [pep87]”, the “cellular uptake, MFI” value stood at 38.35 ± 2.27.

With “RQHHAGPPSTSRPPRPWDTP (listed as Homo sapiens) [pep65]”, the “cellular uptake, MFI” value is 12.72 ± 1.36.

As for “LGASVLGL (listed as Homo sapiens) [pep36]”, the “cellular uptake, MFI” value worked out at 15.37 ± 2.65.

Regarding “RGKSYVQCQGIPQGSILSTL (listed as Homo sapiens) [pep91]”, the “cellular uptake, MFI” value was 24.41 ± 2.79.

Consider “DEALGGTAFVQMPAHGLFPW (listed as Homo sapiens) [pep153]”, for which the “cellular uptake, MFI” value was 31.72 ± 1.74.

For “DARPPPAAPSFRQVSCLKEL (listed as Homo sapiens) [pep53]”, the “cellular uptake, MFI” value was determined as 16.16 ± 0.66.

“PPEAFTTSVRSYLPNTVTDA (listed as Homo sapiens) [pep113]”: the “cellular uptake, MFI” value was 16.09 ± 2.5.

For “RLVPPGLWGSRHNERRFLRN (listed as Homo sapiens) [pep131]”, the “cellular uptake, MFI” value stood at 32.51 ± 2.38.

Take “GVPLGLPAPGARRRGGSASR (listed as Homo sapiens) [pep118]”: the “cellular uptake, MFI” value is listed as 14.69 ± 0.33.

For the sequence “LGPQGWRLVQRGDPAAFRAL (listed as Homo sapiens) [pep109]”, the “cellular uptake, MFI” value is given as 12.46 ± 1.32.
